In US20100324285A1, “ANTIINFLAMMATORY AGENT COMPRISING 2-AMINOPHENOL OR DERIVATIVE THEREOF AS ACTIVE INGREDIENT” (priority 2006, published 2010):
Like-named read-outs stand apart in the source and are kept apart here.

Columns and labels:
COX-1 = target: T1, COX-1 (Ovis aries, UniProt P05979); assay: COX Inhibitor Screening Assay Kit, COX-1; assay type: biochemical
T1 construct: purchased Cayman Chemical Company
T1 sequence (P05979 25-600): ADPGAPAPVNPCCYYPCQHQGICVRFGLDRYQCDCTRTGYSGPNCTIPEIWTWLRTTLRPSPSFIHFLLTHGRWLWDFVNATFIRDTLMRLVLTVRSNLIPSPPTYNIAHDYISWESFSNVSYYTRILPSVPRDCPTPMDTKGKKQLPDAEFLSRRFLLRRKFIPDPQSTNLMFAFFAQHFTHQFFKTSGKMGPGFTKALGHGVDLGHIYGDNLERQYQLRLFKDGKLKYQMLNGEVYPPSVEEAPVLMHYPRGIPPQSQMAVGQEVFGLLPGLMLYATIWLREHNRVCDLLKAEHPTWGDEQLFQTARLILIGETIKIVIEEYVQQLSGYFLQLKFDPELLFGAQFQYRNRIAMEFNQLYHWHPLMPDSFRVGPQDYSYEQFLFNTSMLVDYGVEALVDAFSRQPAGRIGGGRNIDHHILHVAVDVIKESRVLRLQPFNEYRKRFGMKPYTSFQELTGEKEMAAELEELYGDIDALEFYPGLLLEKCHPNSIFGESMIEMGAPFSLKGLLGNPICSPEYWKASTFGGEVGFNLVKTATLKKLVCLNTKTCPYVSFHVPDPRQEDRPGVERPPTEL
Description: (§1) Fifty percent inhibitory concentration (IC50) means the concentration of test sample necessary for inhibiting PGE2 synthesis by 50% compared to non-inhibitory control sample. It can be also determined by measuring the amount of PGE2 produced by adding test samples to cells having cyclooxygenase activity. COX-1/COX-2 ratio means the ratio of […], and the higher the ratio is, the more specific to COX-2 the agent is.
(§2) To verify the results of Experiment 2, it was investigated that whether the activity of COXs, essential enzymes for PGE2 synthesis system, can be inhibited. […] An experimental system without the test samples was set as control. The residual activity of COX-1 or COX-2 was determined as relative activity versus control.

[1] = tested on: Mouse melanoma cell line B16; assay: Living cell rate of B16 cells; details: 5 days, versus control
Procedure: (§3) As control, a system with no test sample was provided. […] The amount of protein was measured by conventional Bradfordmethod and the amount of melanin per 1 mg of protein was calculated. The amount of melanin (%) was calculated according to Formula 4, and the living cell rate (%) was calculated according to Formula 5.

COX-2 [2] = target: T2, COX-2 (Homo sapiens, UniProt P35354); assay: COX Inhibitor Screening Assay Kit, COX-2; assay type: biochemical
T2 sequence (P35354 18-604): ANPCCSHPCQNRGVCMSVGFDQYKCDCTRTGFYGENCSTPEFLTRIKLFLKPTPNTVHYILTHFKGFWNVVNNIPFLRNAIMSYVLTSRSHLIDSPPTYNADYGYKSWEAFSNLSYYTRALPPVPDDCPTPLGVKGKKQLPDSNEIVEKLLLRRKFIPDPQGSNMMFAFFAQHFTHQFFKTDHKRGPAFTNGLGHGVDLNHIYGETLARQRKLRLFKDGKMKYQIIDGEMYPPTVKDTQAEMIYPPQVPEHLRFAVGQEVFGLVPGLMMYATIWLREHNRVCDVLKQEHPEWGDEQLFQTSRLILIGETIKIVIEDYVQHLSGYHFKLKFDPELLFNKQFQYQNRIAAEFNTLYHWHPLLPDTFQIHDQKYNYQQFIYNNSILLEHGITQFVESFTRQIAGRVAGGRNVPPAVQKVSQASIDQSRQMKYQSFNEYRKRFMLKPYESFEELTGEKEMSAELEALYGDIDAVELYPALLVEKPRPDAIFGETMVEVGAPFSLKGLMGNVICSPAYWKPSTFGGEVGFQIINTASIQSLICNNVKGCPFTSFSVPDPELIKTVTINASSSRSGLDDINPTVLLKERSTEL
Description: as §1, §2

[3] = tested on: Mouse melanoma cell line B16; assay: Melanin synthesis in B16 cells; assay type: cell-based; details: for Amount of melanin (%): 5 days, per mg protein versus control
Procedure: as §3
As control, a system with no test sample was provided. […] The amount of protein was measured by conventional Bradford method and the amount of melanin per 1 mg of protein was calculated. The amount of melanin (%) was calculated according to Formula 4.

RAW264.7 cells [4] = assay: NO production by macrophage RAW264.7, Griess method; assay type: cell-based, mouse; details: LPS + IFN-γ, 2 days, relative level versus control
Description: As macrophage cells, RAW264.7 cell strain from mouse or macrophage cells obtained from laboratory animals such as mouse can be used. The amount of produced NO can be measured by conventional Griess method. […] RAW264.7 cells, a murine macrophage cell strain, were suspended in PRMI1640 medium supplied with 10% (v/v) fetal calf serum (hereinafter abbreviated as “FCS”) to give a cell suspension with a cell concentration of 1×10^6 cells/ml. […] The experimental system without the test samples described above was set as control. […] NO production, PGE2 production and macrophage growth are indicated as relative levels versus controls.

RAW264.7 cells [5] = assay: Macrophage growth, living cell count; assay type: cell-based, mouse; details: 2 days, relative level versus control
Description: (§4) RAW264.7 cells, a murine macrophage cell strain, were suspended in PRMI1640 medium supplied with 10% (v/v) fetal calf serum (hereinafter abbreviated as “FCS”) to give a cell suspension with a cell concentration of 1×10^6 cells/ml. […] The experimental system without the test samples described above was set as control. […] NO production, PGE2 production and macrophage growth are indicated as relative levels versus controls.

RAW264.7 cells [6] = assay: PGE2 production by macrophage RAW264.7, PGE2-EIA kit; assay type: cell-based, mouse; details: LPS + IFN-γ, 2 days, relative level versus control
Description: as §4

COX-2 [7] = target: T2, COX-2; details: nonsteroidal COX inhibitors, comparison values, source not given; cited from earlier work
[8] = read-out: residual activity of COX-1
[9] = read-out: residual activity of COX-2

## Nc1ccccc1O [2-Aminophenol]
COX-1
  IC50: 28 µM
COX-1; [8]
  remaining activity at 8 µM: 66%
  remaining activity at 16 µM: 73%
  remaining activity at 32 µM: 42%
[1]; 1 μM
  Living cell rate (%): 95%
[1]; 2 μM
  Living cell rate (%): 79%
[1]; 4 μM
  Living cell rate (%): 52%
COX-2 [2]
  IC50: 27.7 µM
COX-2 [2]; ratio of IC50 values of Table 2
  COX-1/COX-2 ratio: about 1
COX-2 [2]; [9]
  remaining activity at 8 µM: 72%
  remaining activity at 16 µM: 60%
  remaining activity at 32 µM: 47%
[3]; 1 μM
  Amount of melanin (%): 62%
[3]; 2 μM
  Amount of melanin (%): 55%
[3]; 4 μM
  Amount of melanin (%): 50%
[3]; in the concentration at which the cell-growth was not inhibited
  inhibiting effect on melanin production higher than that of kojic acid: 1.000 fold

## CC(=O)Oc1ccccc1C(=O)O [AS, aspirin]
RAW264.7 cells [4]; 0.16 μM
  NO production (%): 101%
RAW264.7 cells [4]; 0.31 μM
  NO production (%): 102%
RAW264.7 cells [4]; 0.63 μM
  NO production (%): 102%
RAW264.7 cells [4]; 1.3 μM
  NO production (%): 93%
RAW264.7 cells [4]; 2.5 μM
  NO production (%): 95%
RAW264.7 cells [4]; 5.0 μM
  NO production (%): 90%
RAW264.7 cells [4]; 10 μM
  NO production (%): 86%
RAW264.7 cells [5]; 0.16 μM
  Macrophage growth (%): 103%
RAW264.7 cells [5]; 0.31 μM
  Macrophage growth (%): 100%
RAW264.7 cells [5]; 0.63 μM
  Macrophage growth (%): 95%
RAW264.7 cells [5]; 1.3 μM
  Macrophage growth (%): 85%
RAW264.7 cells [5]; 2.5 μM
  Macrophage growth (%): 86%
RAW264.7 cells [5]; 5.0 μM
  Macrophage growth (%): 89%
RAW264.7 cells [5]; 10 μM
  Macrophage growth (%): 89%
RAW264.7 cells [6]; 0.16 μM
  PGE2 production (%): 98%
RAW264.7 cells [6]; 0.31 μM
  PGE2 production (%): 99%
RAW264.7 cells [6]; 0.63 μM
  PGE2 production (%): 79%
RAW264.7 cells [6]; 1.3 μM
  PGE2 production (%): 47%
RAW264.7 cells [6]; 2.5 μM
  PGE2 production (%): 33%
RAW264.7 cells [6]; 5.0 μM
  PGE2 production (%): 8%
RAW264.7 cells [6]; 10 μM
  PGE2 production (%): 3%
COX-2 [7]
  COX-1/COX-2 ratio: 0.24
